Here are results for 27 compounds from ChEMBL document CHEMBL1135302, “Optimization of the 4-aryl group of 4-aryl-pyridine glucagon antagonists: development of an efficient, alternative synthesis” (Bioorg Med Chem Lett, 2002).

Assay [1] deals with T1, Glucagon receptor (Homo sapiens, UniProt P47871). The experiment in a line: Percentage inhibition of human glucagon receptor function expressed in CHO cells at a concentration of 20 uM. Type of assay: cell-based.
For assay [2], the target named is T1, Glucagon receptor. The assay is described as follows: Tested for its ability to inhibit cAMP production in human glucagon receptor expressed CHO cells. Type of assay: functional, cell-based.
The target in assay [3] is T1, Glucagon receptor. The experiment in a line: biochemical.
Description: Tested for its inhibitory activity against human glucagon receptor (hGR) expressed in CHO cells

T1 sequence (P47871 whole entry): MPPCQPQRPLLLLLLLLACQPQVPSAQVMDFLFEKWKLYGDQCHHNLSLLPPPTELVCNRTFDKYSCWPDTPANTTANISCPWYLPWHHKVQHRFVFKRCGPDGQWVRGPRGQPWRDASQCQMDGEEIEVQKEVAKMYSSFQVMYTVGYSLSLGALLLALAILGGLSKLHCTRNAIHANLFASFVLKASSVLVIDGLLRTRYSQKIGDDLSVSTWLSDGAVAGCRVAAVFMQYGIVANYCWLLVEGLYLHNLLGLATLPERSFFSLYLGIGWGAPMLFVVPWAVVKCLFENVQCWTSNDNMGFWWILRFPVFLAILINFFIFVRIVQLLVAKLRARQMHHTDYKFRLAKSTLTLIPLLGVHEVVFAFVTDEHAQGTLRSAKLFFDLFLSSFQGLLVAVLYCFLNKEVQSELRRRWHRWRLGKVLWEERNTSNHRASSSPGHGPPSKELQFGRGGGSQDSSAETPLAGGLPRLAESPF

A word on the inhibition: it is the relative decrease from the control value, in per cent. A high value points to a strong effect. Regarding `CCCCCc1c(C(C)C)nc(C(C)C)c(CO)c1-c1ccc(C(F)(F)F)cc1`, the inhibition in assay [1] stood at 35%. Still for that read-out and setting: to `CCCCCc1c(C(C)C)nc(C(C)C)c(CO)c1-c1ccc2ccccc2c1` belongs 16%; to `CCCCCc1c(C(C)C)nc(C(C)C)c(CO)c1-c1ccc(O)cc1`, 24%. For orientation: IC50 means the concentration that gives 50% inhibition. A low value points to greater potency in that assay. For the compound `CCCCCc1c(C(C)C)nc(C(C)C)c(CO)c1-c1ccc(F)cc1O`, the IC50 in assay [2] stood at 0.12 µM; in assay [3], 0.19 µM. The compound `CCCCCc1c(C(C)C)nc(C(C)C)c(CO)c1-c1ccc(F)cc1F` registered an IC50 in assay [3] of 11 µM. As to `CCCCCc1c(C(C)C)nc(C(C)C)c(CO)c1-c1ccc2c(c1)CCCC2`, in assay [1], the inhibition is 37%. `CCC/C=C/c1c(C(C)C)nc(C(C)C)c(CO)c1-c1ccc(Cl)c(Cl)c1` showed an inhibition in assay [1] of 39%.

`CCCCCc1c(C(C)C)nc(C(C)C)c(CO)c1-c1cccc2ccccc12` yielded an inhibition in assay [1] of 6%. As for `CCCCCc1c(C(C)C)nc(C(C)C)c(CO)c1-c1cccc(OC)c1`, in assay [3], it took 48 µM to reach half-maximal inhibition (IC50).

In turn, `CCCCCc1c(C(C)C)nc(C(C)C)c(CO)c1-c1ccc(F)c(CO)c1` returned an IC50 in assay [3] of 19 µM.

Turning to `CCCCCc1c(C(C)C)nc(C(C)C)c(CO)c1-c1cccc(C(F)(F)F)c1`, the inhibition in assay [1] worked out at 25%. On the same count and under the same terms, to `CCCCCc1c(C(C)C)nc(C(C)C)c(CO)c1-c1ccc(Cl)cc1Cl` belongs 8%; to `CCCCCc1c(C(C)C)nc(C(C)C)c(C)c1-c1ccccc1O`, 11%. In assay [1], `CCCCCc1c(C(C)C)nc(C(C)C)c(CO)c1-c1ccccc1CO` had an inhibition of 44%.

In assay [2], `CCCCCc1c(C(C)C)nc(C(C)C)c(CO)c1-c1ccc(F)cc1` had an IC50 of 0.4 µM. `CCCCCc1c(C(C)C)nc(C(C)C)c(CO)c1-c1ccccc1C`: in assay [1], the inhibition was 33%. Regarding `CCCCCc1c(C(C)C)nc(C(C)C)c(CO)c1-c1ccccc1N`, the midpoint of inhibition in assay [3], the IC50, lay at 2.3 µM. In assay [1], `CCCCCc1c(C(C)C)nc(C(C)C)c(CO)c1-c1cccc(Cl)c1` had an inhibition of 49%.

Consider `CCCCCc1c(C(C)C)nc(C(C)C)c(CO)c1-c1ccccc1NC(C)=O`, for which the inhibition in assay [1] was 13%. Turning to `CC(C)=Cc1c(C(C)C)nc(C(C)C)c(O)c1-c1ccc(F)cc1`, the IC50 in assay [3] is 7 µM. `CCCCCc1c(C(C)C)nc(C(C)C)c(CO)c1-c1cccc(C)c1` displayed an inhibition in assay [1] of 46%. In assay [1], `CCCCCc1c(C(C)C)nc(C(C)C)c(CO)c1-c1ccc(OC)cc1` returned an inhibition of 37%. Still for that read-out and setting: to `CCC/C=C/c1c(C(C)C)nc(C(C)C)c(CO)c1-c1ccc(S(C)(=O)=O)cc1` belongs 14%; to `CCCCCc1c(C(C)C)nc(C(C)C)c(CO)c1-c1ccc(CC)cc1`, 42%. On the same count and under the same terms, to `CCCCCc1c(C(C)C)nc(C(C)C)c(CO)c1-c1ccc(C(C)C)cc1` belongs 34%; to `CCCCCc1c(C(C)C)nc(C(C)C)c(CO)c1-c1ccccc1OC`, 27%; to `CCCCCc1c(C(C)C)nc(C(C)C)c(CO)c1-c1ccc(-c2ccccc2)cc1`, 2%.
